Columns and labels:
[1] = Metabolic stability assay in rat liver microsomes; type: in vitro ADME; conditions: 1 μM compound, 0.5 mg/ml microsomal protein, 37° C.; for half-life at 1 µM: rat, liver microsomes, read-out: Metabolic stability half-life (T1/2, min, rat liver microsome)
Experimental: The metabolic stability of the compounds was evaluated in incubation with rat liver microsomes.

[2] = tested on: cultured mammalian cells, the NIH-3T3 cells, C2C12 cells, and other mammalian cell lines; assay: Mitochondrial membrane potential (MMP) assay, TMRE (or DilC1(5)) staining, related to OCR induction; type: cell-based; conditions: ratio of concentration leading to 10% MMP retention (90% MMP loss, TMRE) to minimal concentration leading to OCR increase
Experimental: Mitochondrial membrane potential assay was performed using the standard TMRE (tetramethylrhodamine ethyl ester) staining method with cultured mammalian cells, the NIH-3T3 cells, C2C12 cells, and other mammalian cell lines. Cells were seeded in 6-well plates and cultured in DMEM medium supplemented with 10% fetal bovine serum and 2 mM glutamine. Cells were allowed to grow to the logarithmic growth phase prior to experiments. The cells were treated with each individual compound at various concentrations for two hours, followed by staining with TMRE at a final concentration of 100 nM for 15 minutes. The cells were then washed once with PBS, and examined under fluorescence microscopy. Cells treated with various concentrations of niclosamide ethanolamine were used as a positive control.
In some examples, mitochondrial membrane potential was measured with DilC1(5) staining. Briefly, DilC1(5) was added to the cells to 50 nM final concentration and the cells were incubated at 37° C., 5% CO2, for 15 to 30 minutes. Cells were washed once by adding 2 mL of warm phosphate-buffered saline (PBS). Mitochondrial staining was determined by fluorescence microscopy with 633 nm excitation using standard filters for far-red emission.
Using the ratio between C10% TMRE (the concentration at which 10% MMP remains, i.e. 90% MMP is lost) and Cmin-OCR (the concentration at which minimal OCR induction is observed), we categorized the MMP-retaining uncouplers into two groups.

[3] = tested on: C2C12 cells; assay: Mitochondrial uncoupling activity by oxygen consumption rate (OCR) assay, Seahorse, in presence of oligomycin; type: cell-based, mouse; conditions: for minimal effective concentration: Mus musculus, C2C12, in the presence of oligomycin 2.5 μM, read-out: COCR-min: minimal concentration increasing OCR in the presence of oligomycin
Outline: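 Mouse C2C12 myoblasts grown in 10% FBS medium had OCR measured on Seahorse XF96/XF24 sequentially: basal, after 2.5 μM oligomycin (final), then after compound at varying concentrations. Rotenone/antimycin A confirmed mitochondrial origin. COCR-min is the minimal compound concentration inducing OCR in the presence of oligomycin.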

[4] = PO pharmacokinetic study, oral exposure (Example B3); type: in vivo; conditions: for AUC at 24 h / AUC(0-t) at 24 h: blood, po; for AUC at 24 h: 10 mg/kg gavage; for Fold increase over Compound 27 in U.S. Pat. No. 10,227,315: ratio of oral AUC 24 hr
Experimental: The blood concentration of the compound was then determined at 0 (pre-dosing), 5 min, 15 min, 30 min, 1 hr, 2 hr, 4 hr, 8 hr, 24 hr time points by LC-MS/MS analysis (See Tables 1 and 2, vide supra).

[5] = tested on: high-fat diet (HFD)-induced diabetic mouse model; assay: Efficacy in high-fat diet (HFD)-induced diabetic/fatty liver mouse model; type: in vivo; conditions: Mus musculus; HFD model, oral daily gavage; read-out: Efficacious dosage to reduce blood glucose in mouse models, oral daily gavage
Experimental: For HFD induced diabetic mouse model, C57Bl6 mice (male, n=6) were induced to obese and diabetic conditions by feeding high-fat diet (HFD, 60% fat calories, Research Diet, Inc. New Brunswick, NJ) for 3-4 months. […] During the 3-week period, the mice continued feeding HFD. […] The blood glucose levels were measured after an overnight fast, plasma insulin levels were tested after 5-6 hours fast, and the glycated HbA1c levels were determined in whole blood samples.
FIG. 15C and FIG. 15D show liver sections from mice fed HFD following 3 weeks of treatment with Compounds 25 and 64, respectively (P.O. dosing of 5 mg/kg, by daily gavage).
Experiments were similarly performed with other compounds, in either high-fat diet induced diabetes and fatty liver models, or in db/db mouse model, or in both, by daily oral gavage administration with low dosages.

[6] = tested on: LX-2 cells (human hepatic stellate cells); assay: Inhibition of TGFβ-induced hepatic stellate cell differentiation into myofibroblast-like cells; type: cell-based; conditions: TGFβ 10 ng/ml; for minimal effective concentration: Homo sapiens, LX-2, hepatic stellate cell differentiation to myofibroblast-like cells, 24 hours, read-out: Minimal inhibitory concentration; for inhibition of TGFβ-induced hepatic stellate cell differentiation: in words
Experimental: Liver fibrosis is one hallmark of NASH. […] This process could be modeled in vitro using the hepatic stellate differentiation experiment. The human hepatic stellate LX-2 cells were cultured within DMEM (Dulbecco's Modified Eagle Media, pH 7.4) supplied with 2% fetal bovine serum, 4.5 g/l glucose and 2 mM glutamine to 100 percent confluence. […] Cellular morphology was then examined under a microscope. As shown in FIG. 16 to FIG. 17, hepatic stellate cells could be induced by TGF-beta to differentiate into myofibroblast-like cells.

[7] = tested on: HepG2; assay: Cell growth inhibition assay (SRB), HepG2; type: cell-based; conditions: Homo sapiens, HepG2, 48 h
Experimental: Cell growth inhibition assays were performed using a protocol standardized by National Cancer Institute (NCI) for evaluating anti-cancer drugs. Various mammalian cell lines were used for the assays. Briefly, the cells were inoculated into 96 well microtiter plates. After cell inoculation, the microtiter plates were incubated for cell growth for 24 h prior to the addition of compounds. After 24 h, two plates of each cell line were fixed in situ with TCA, to represent a measurement of the cell population for each cell line at the time of compound addition (Tz). Test compounds were solubilized in dimethyl sulfoxide. At the time of test compound addition, five 10-fold or ½ log serial dilutions were made to provide a total of five test compound concentrations plus control. Aliquots of 100 μl of these different test compound dilutions were added to the appropriate microtiter wells already containing 100 μl of the medium, resulting in the required final test compound concentrations. Following test compound addition, the plates were incubated for an additional 48 h. The assay was terminated by the addition of cold TCA. Cells were fixed in situ with 50 μl of cold 50% (w/v) TCA (final concentration, 10% TCA), washed five times with tap water and air-dried. Sulforhodamine B (SRB) solution (100 μl) at 0.4% (w/v) in 1% acetic acid was added to each well, and plates were incubated for 10 minutes at room temperature. After staining, the unbound dye was removed by washing five times with 1% acetic acid and the plates were air-dried. The bound stain was subsequently solubilized with 10 mM trizma base, and the absorbance was read on an automated plate reader at a wavelength of 515 nm. Using the seven absorbance measurements [time zero, (Tz), control growth, (C), and test growth in the presence of a compound at the five concentration levels (Ti)], the percentage growth was calculated at each of the test compound concentrations levels.

[8] = tested on: animal models; conditions: mixed with food, cited from earlier work; for dose required to achieve efficacy, equivalent: equivalent of ppm in diet

## COCCN(CCOC)Cc1cc(Cl)cc(C(=O)Nc2nc3ccc(C(F)(F)F)cc3s2)c1O [drawing 263]
[1]
  half-life at 1 µM: 0.467 h

## COCCOCc1cc(F)cc(C(=O)Nc2nc3ccc(C(F)(F)F)cc3s2)c1O [Compound 43]
[2]
  C10%TMRE/Cmin-OCR: ~43
[3]
  minimal effective concentration: < 5 µM

## N#CC1CCN(Cc2cc(Cl)cc(C(=O)Nc3nc4ccc(C(F)(F)F)cc4s3)c2O)C1 (stereo not shown) [Compound 36, 5-chloro-3-((3-cyanopyrrolidin-1-yl)methyl)-2-hydroxy-N-(6-(trifluoromethyl)benzo[d]thiazol-2-yl)benzamide]
[2]
  C10%TMRE/Cmin-OCR: ~36
[3]
  minimal effective concentration: < 5 µM

## Cc1cc(Cl)cc(C(=O)Nc2nc3c(COCc4ccc(F)cc4)cc(C(F)(F)F)cc3s2)c1O [Compound 83, 5-chloro-N-(4-(((4-fluorobenzyl)oxy)methyl)-6-(trifluoromethyl)benzo[d]thiazol-2-yl)-2-hydroxy-3-methylbenzamide]
[2]
  C10%TMRE/Cmin-OCR: ~83
[3]
  minimal effective concentration: < 5 µM

## CN(C)Cc1cc(Cl)cc(C(=O)Nc2nc3ccc(OC(F)(F)F)cc3s2)c1O
[1]
  Metabolic stability half-life (T1/2, min, rat liver microsome): ∞

## O=C(Nc1nc2ccc(C(F)(F)F)cc2s1)c1cc(Cl)cc(C2CCCO2)c1O (stereo not shown) [Compound 15, 5-chloro-2-hydroxy-3-(tetrahydrofuran-2-yl)-N-(6-(trifluoromethyl)benzo[d]thiazol-2-yl)benzamide]
[4]
  AUC at 24 h: > 120000 ng·h/mL
[5]
  minimal effective dose: 2.5 mg/kg
[3]
  minimal effective concentration: < 5 µM

## O=C(Nc1nc2ccc(C(F)(F)F)cc2s1)c1cc(Cl)cc(CN2CCCCC2)c1O [drawing 264]
[1]
  half-life at 1 µM: 1.53 h

## O=C(Nc1nc2ccc(C(F)(F)F)cc2s1)c1cc(Cl)cc(CN2CCCC2)c1O [Compound 23, 5-chloro-2-hydroxy-3-(pyrrolidin-1-ylmethyl)-N-(6-(trifluoromethyl)benzo[d]thiazol-2-yl)benzamide]
[6]
  minimal effective concentration: 5 µM
  inhibition of TGFβ-induced hepatic stellate cell differentiation: able to directly inhibit hepatic stellate cell (HSC) activation in vitro
[4]
  AUC at 24 h: 10000 to 30000 ng·h/mL
[5]
  minimal effective dose: 10 mg/kg
[3]
  minimal effective concentration: < 5 µM

## Cl.O=C(Nc1nc2ccc(C(F)(F)F)cc2s1)c1cc(Cl)cc(CN2CCOCC2)c1O [Compound 16, 5-chloro-2-hydroxy-3-(morpholinomethyl)-N-(6-(trifluoromethyl)benzo[d]thiazol-2-yl)benzamide]
[6]
  minimal effective concentration: 5 µM
  inhibition of TGFβ-induced hepatic stellate cell differentiation: able to directly inhibit hepatic stellate cell (HSC) activation in vitro
[4]
  AUC at 24 h: 10000 to 30000 ng·h/mL
[5]
  minimal effective dose: 1 mg/kg
[3]
  minimal effective concentration: < 5 µM
[3]; in words
  effect on oxygen consumption rate (OCR): increase OCR in the presence of oligomycin

## O=C(Nc1nc2ccc(C(F)(F)F)cc2s1)c1cc(Cl)cc(CN2CCC(C(F)(F)F)CC2)c1O [Compound 57, 5-chloro-2-hydroxy-N-(6-(trifluoromethyl)benzo[d]thiazol-2-yl)-3-((4-(trifluoromethyl)piperidin-1-yl)methyl)benzamide]
[7]
  GI50: < 5 µM
[3]
  minimal effective concentration: < 5 µM

## Cc1cc(Cl)cc(C(=O)Nc2nc3ccc(C(F)(F)F)cc3s2)c1O [drawing 327]
[2]
  C10%TMRE/Cmin-OCR: [drawing 327]

## O=C(Nc1nc2ccc(C(F)(F)F)cc2s1)c1cc(Cl)ccc1O [drawing 321]
[2]
  C10%TMRE/Cmin-OCR: [drawing 321]

## O=C(Nc1ccc([N+](=O)[O-])cc1Cl)c1cc(Cl)ccc1O [niclosamide ethanolamine]
[4]; 50 mg/kg
  AUC(0-t) at 24 h: ~1800 ng·h/mL
[8]
  dose required to achieve efficacy, equivalent: 150 mg/kg/day
  dose required to achieve efficacy, in diet: 1500 ppm

## Cc1cc(Cl)cc(C(=O)Nc2nc3ccc(C(F)(F)F)cc3s2)c1O [drawing 333]
[2]
  C10%TMRE/Cmin-OCR: [drawing 333]

## O=C(Nc1nc2ccc(C(F)(F)F)cc2s1)c1cc(Cl)cc(CN2CCOCC2)c1O
[1]
  half-life at 1 µM: 1.5 h

## O=C(Nc1nc2ccc(C(F)(F)F)cc2s1)c1cc(Cl)ccc1O [drawing 309]
[2]
  C10%TMRE/Cmin-OCR: [drawing 309]

## CCc1cc(Cl)cc(C(=O)Nc2nc3ccc(C(F)(F)F)cc3s2)c1O [Compound 27 in U.S. Pat. No. 10,227,315, reference compound]
[4]; 10 mg/kg
  AUC(0-t) at 24 h: ~3000 ng·h/mL
[4]
  Fold increase over Compound 27 in U.S. Pat. No. 10,227,315: 1.0
[8]
  dose required to achieve efficacy, equivalent: 60 to 75 mg/kg/day
  dose required to achieve efficacy, in diet: 600-750 ppm

## COCCOCc1cc(C(F)(F)F)cc2sc(NC(=O)c3cc(Cl)cc(C)c3O)nc12 [drawing 345]
[2]
  C10%TMRE/Cmin-OCR: [drawing 345]

## CN(C)Cc1cc(Cl)cc(C(=O)Nc2nc3ccc(C(F)(F)F)cc3s2)c1O
[1]
  half-life at 1 µM: 14.7 h

## Cc1cc(Cl)cc(C(=O)Nc2nc3ccc(C(F)(F)F)cc3s2)c1O [Compound 28 in U.S. Pat. No. 10,227,315, reference compound]
[4]; 10 mg/kg
  AUC(0-t) at 24 h: 4410 ng·h/mL
[4]
  Fold increase over Compound 27 in U.S. Pat. No. 10,227,315: 1.5
[8]
  dose required to achieve efficacy, equivalent: 60 to 75 mg/kg/day
  dose required to achieve efficacy, in diet: 600-750 ppm

## O=C(Nc1nc2ccc(C(F)(F)F)cc2s1)c1cc(Cl)ccc1O [drawing 300]
[2]
  C10%TMRE/Cmin-OCR: [drawing 300]

## Cc1cc(Cl)cc(C(=O)Nc2nc3ccc(C(F)(F)F)cc3s2)c1O [drawing 330]
[2]
  C10%TMRE/Cmin-OCR: [drawing 330]

## CS(=O)(=O)C1CCN(Cc2cc(Cl)cc(C(=O)Nc3nc4ccc(C(F)(F)F)cc4s3)c2O)C1 (stereo not shown) [Compound 37, 5-chloro-2-hydroxy-3-((3-(methylsulfonyl)pyrrolidin-1-yl)methyl)-N-(6-(trifluoromethyl)benzo[d]thiazol-2-yl)benzamide]
[2]
  C10%TMRE/Cmin-OCR: ~37
[3]
  minimal effective concentration: > 10 µM

## COCCOCc1cc(C(F)(F)F)cc2sc(NC(=O)c3cc(Cl)cc(C)c3O)nc12 [drawing 348]
[2]
  C10%TMRE/Cmin-OCR: [drawing 348]

## Cc1cc(Cl)cc(C(=O)Nc2nc3ccc(C(F)(F)F)cc3s2)c1O [drawing 324]
[2]
  C10%TMRE/Cmin-OCR: [drawing 324]

Reference: patent US20260306502A1, “MITOCHONDRIAL UNCOUPLERS FOR TREATMENT OF METABOLIC DISEASES AND CANCER” (Mito Biopharma, LLC, priority 2022, published 2026)
